# According to US20070105721A1, “Vinylogous 4-Hpyrones and their use in promoting plant growth” (priority 2003, published 2007):
# Tested on: test species
# Assay: Germination tests in a range of test species
# Type: in vivo
# Conditions: each of the test species
# Protocol: Grand Rapids Lettuce seeds (Waltham strain) were obtained from R.B. Dessert Seed Co. and were frozen in sachets until use. For testing of aqueous samples, 2.5 mL of test solution was applied to three replicates of 40-50 seeds in Petri dishes (90 mm) lined with two layers of Whatman No. 1 filter paper (7 cm). Millipore filtered water (MP water) was used as a control for each experiment and dilutions of each sample were used to ensure the optimum concentration range for activity. Fractions were reconstituted to their original concentration (before fractionation) and dilutions were made using MP water. Petri dishes were sealed with a layer of plastic wrap, and stored in a light proof container. All manipulations involving the seed were carried out in a dark room and germinants, based on the appearance of a radicle, were scored after 48 hours incubation.
# Conostylis aculeata and Stylidium affine seeds were obtained from Nindethana seed service and stored before use. For testing of aqueous samples, three replicates of 20-30 sterilised seeds were added to UV sterilised petri dishes (90 mm), containing two Whatman No. 1 filter papers (7 cm) moistened with the filtered test solution (2.5 mL, 0.22 μm). […] The seeds were scored on a weekly basis with optimum germination achieved between 4-6 weeks.
smiles,measurement,value
"Cc1c2ccocc-2oc1=O [Compound 1a, 3-Methyl-2H-furo[2,3-c]pyran-2-one]",concentration for which germination promoting activity has been shown,100 ppt
